Patent US10722575B2, “Use of 1,3-diphenylprop-2-en-1-one derivatives for treating liver disorders” (GENFIT, priority 2009, dated 2020)

Key:
[1] = system: patients suffering from atherogenic dyslipidaemia and abdominal obesity; experiment: First pilot double-blind placebo-controlled randomized study, Cpd 29 80 mg/day, 28 days; type: in vivo, human; conditions: 80 mg/day oral
Experimental: 1-[4-methylthiophenyl]-3-[3,5-dimethyl-4-carboxydimethylmethyloxyphenyl]prop-2-en-1-one (Cpd 29 of WO 2004/005233) has been formulated as hard shell capsules containing 5, 10 or 20 mg of the compound. The compound (80 mg) was administered orally once daily for 28 days. The study has been performed in two parallel groups in double-blind conditions: placebo or Cpd 29 of WO 2004/005233.
The tolerability and safety of once-a-day administrations, as well as the efficacy in improving plasma lipids and glucose homeostasis compared with placebo, were evaluated in two pilot trials using relevant biochemical parameters. The data were used to calculate the percentage of change due to the compound when compared to the placebo after 28 days of treatment.
A first pilot, double-blind, placebo controlled, randomized study has been performed in patients suffering from atherogenic dyslipidaemia and abdominal obesity for assessing the tolerability and safety of once-a-day administrations of oral doses of Cpd 29 of WO 2004/005233 (at the dose of 80 mg/day), as well as the efficacy on plasma triglycerides and HDL-cholesterol (primary objectives).

hApoE2 KI mice = hApoE2 KI mice on Western diet, 12 weeks, hepatic gene expression by quantitative RT-PCR; type: in vivo; conditions: 12 weeks in Western diet, Cpd 29 0.3 mg/kg/day
Experimental: The compounds of the General Formula (I) were tested in vivo in a high fat diet mice model. Dyslipidemic “humanized” ApoE2 knock-in mice (hApoE2 KI) were fed a Western diet and treated during 12 weeks. The compounds of interest, including the Compound 29 of WO 2004/005233 at 0.3 mg/kg/day and the Fenofibrate at 100 mg/kg/day (used as a reference compound) were incorporated into the diet. At the end of the protocol, animals were sacrificed, livers were harvested and the hepatic expression of genes that are known to be implicated in the liver inflammation and the fibrosis processes were evaluated by quantitative RT-PCR (Panels A-D). Statistical analysis was performed as indicated for FIG. 1.
Female hApoE2 knock-in (KI) transgenic mice (Sullivan et al., 1998)(4 weeks of age). Mice were kept on a 12-hour light/dark cycle at a constant temperature of 20±3° C. After a 1 week acclimation, mice were separated in groups of 7-10 animals selected such as the distribution of their body weight and plasmatic lipid levels determined before the experiment were uniform. Animals were fed a Western diet (20% saturated fat and 0.2% cholesterol, Harlan Teklad TD88137) at weaning and during 12 weeks. Compounds of interest (Cpd 29 at 0.3 mg/kg/day and Fenofibrate at 100 mg/kg/day) were incorporated in the Western diet (SAFE, Augy, France) and administrated to mice during 12 weeks. Control animals received Western diet only. Animals had access to food and water ad libitum.
At the end of the studies, the animals were weighed and sacrificed under anesthesia. Blood was collected from the retro-orbital sinus; plasma was obtained by centrifugation (4 000 rpm, at 4° C. for 15 min) and subsequently frozen and stored at −20° C. Tissues and livers were isolated and snap-frozen in liquid nitrogen and stored at −80° C. for subsequent analysis (gene expression and biochemistry) or fixed in 4% paraformaldehyde for histology.
Total RNA was isolated from frozen livers using the NucleoSpin® 96 RNA kit (Macherey Nagel), according to the manufacturer's instructions. Reverse transcription was performed on 1 μg of total RNA by action of 1 μl of MMLV-RT enzyme (Invitrogen) during 1 hour at 37° C. in a total volume of 30 μl. […] Quantitative PCR was then carried out using the MyiQ Single-Color Real-Time PCR Detection System (Biorad). […]
The quantity of fluorescence emitted is directly proportional to the quantity of complementary DNA present at the start of the reaction and amplified during the PCR. The relative levels of expression were determined using the standard curve for each transcript. […] The induction factor, i.e. the ratio between the relative signal induced by the compound according to the invention and the average of the values relating to the control group, was then calculated for each sample. […]

ob/ob mice [2] = experiment: ob/ob mice, plasma ALAT after 26 days of treatment; type: in vivo; conditions: 26 days daily gavage; Cpd 29 30 mg/kg/day, Rosiglitazone 10 mg/kg/day; FIG. 2C
Experimental: The compounds of the General Formula (I) were tested in a murine model of type II diabetes, the ob/ob mice. […] After 26 days of treatment, animals were sacrificed and plasma samples and livers were harvested. Hepatic expression of genes that are known to be implicated in the liver inflammation process was evaluated and plasmatic levels of ALAT were measured (Panels A-C). Statistical analysis was performed using unpaired T-test with three p values that defines statistical relevance (* means p<0.05; ** means p<0.01; *** means p<0.001).
Male ob/ob mice (8 weeks of age) were purchased from Charles River (L'Arbresle, France) and were kept on a 12-hour light/dark cycle at a constant temperature of 20±3° C. After a 1 week acclimation, mice were separated in groups of 8 animals selected such that the distribution of their body weight and their 6 hours fasting glycemia determined before the experiment were uniform. Animals were fed a standard chow diet (R03, SAFE) and treated during 26 days with the compounds of interest. […] Control animals were treated with vehicle only (Carboxymethlycellulose 1%+Tween-80 0.1%). Animals had access to food and water ad libitum.
At the end of the studies, the animals were weighed and sacrificed under anesthesia. […]

ob/ob mice [3] = experiment: ob/ob mice, hepatic gene expression by quantitative RT-PCR after 26 days of treatment; type: in vivo; conditions: 26 days daily gavage, Cpd 29 10 and 30 mg/kg/day, Fenofibrate 100 mg/kg/day, Rosiglitazone 10 mg/kg/day
Experimental: The compounds of the General Formula (I) were tested in a murine model of type II diabetes, the ob/ob mice. Mice were daily orally treated with the Compound 29 of WO 2004/005233 at two different doses (10 and 30 mg/kg/day) and with the prototypical PPARalpha- and PPARgamma-specific reference compounds (Fenofibrate at 100 mg/kg/day and Rosiglitazone at 10 mg/kg/day respectively). After 26 days of treatment, animals were sacrificed and plasma samples and livers were harvested. Hepatic expression of genes that are known to be implicated in the liver inflammation process was evaluated and plasmatic levels of ALAT were measured (Panels A-C). […]
Male ob/ob mice (8 weeks of age) were purchased from Charles River (L'Arbresle, France) and were kept on a 12-hour light/dark cycle at a constant temperature of 20±3° C. After a 1 week acclimation, mice were separated in groups of 8 animals selected such that the distribution of their body weight and their 6 hours fasting glycemia determined before the experiment were uniform. […]
Total RNA was isolated from frozen livers using the NucleoSpin® 96 RNA kit (Macherey Nagel), according to the manufacturer's instructions. […] Quantitative PCR was then carried out using the MyiQ Single-Color Real-Time PCR Detection System (Biorad). […]

[4] = relative to the placebo group, p<0.01

1-[4-methylthiophenyl]-3-[3,5-dimethyl-4-carboxydimethylmethyloxyphenyl]prop-2-en-1-one [Cpd 29]
effect on Homocystein (cardiovascular risk factor) [1]: lack of effect
reduction of Gamma Glutamyl transpeptidase level ([1]; p<0.001): 23%
liver acute phase inflammation marker fibrinogen ([1]; p<0.01): reduction
liver acute phase inflammation marker haptoglobin ([1]; p<0.01): reduction
reduction of Alanine aminotransferase level ([1]; p<0.01): 13%
increase in good cholesterol (HDL-C) level [1, 4]: 9%
reduction of plasma triglycerides [1, 4]: 21%
hepatic expression of Col1a1 (collagen genes) (hApoE2 KI mice; Fenofibrate 100 mg/kg/day, FIG. 3D): statistically significant inhibition
hepatic expression of TNFα (hApoE2 KI mice; FIG. 3A): inhibited
hepatic expression of CCL5 (hApoE2 KI mice; FIG. 3B): inhibited
hepatic expression of TGFβ (hApoE2 KI mice; FIG. 3C): inhibited
plasmatic levels of ALAT (ob/ob mice [2]): statistically significant decrease
hepatic expression of TNFalpha (ob/ob mice [3]; FIG. 2A): inhibited the expression of this cytokine in a dose-response manner
hepatic expression level of TGFbeta (ob/ob mice [3]; FIG. 2B): inhibited the expression of this growth factor in a dose-response manner
